Reference: ChEMBL document CHEMBL1144490, “Apoptosis induction and modulation of P-glycoprotein mediated multidrug resistance by new macrocyclic lathyrane-type diterpenoids” (Bioorg Med Chem, 2007)
In brackets after ≈: the same amount, converted by molar mass.

Assays:
[1] = tested on: L5178Y; assay: Induction of apoptosis in human MDR1 gene transfected mouse L5178 Y cells assessed as early apoptosis at 50 ug/mL after 40 mins; format: functional
[2] = tested on: L5178Y; assay: Induction of apoptosis in human MDR1 gene transfected mouse L5178 Y cells assessed as total apoptosis at 5 ug/mL after 40 mins; format: functional
[3] = tested on: L5178Y; assay: Induction of apoptosis in human MDR1 gene transfected mouse L5178 Y cells assessed as early apoptosis at 5 ug/mL after 40 mins; format: functional
[4] = tested on: L5178Y; assay: Induction of apoptosis in human MDR1 gene transfected mouse L5178 Y cells assessed as total apoptosis at 50 ug/mL after 40 mins; format: functional
[5] = tested on: L5178Y; assay: Induction of apoptosis in human MDR1 gene transfected mouse L5178 Y cells assessed as necrosis at 5 ug/mL after 40 mins; format: functional
[6] = tested on: L5178Y; assay: Induction of apoptosis in human MDR1 gene transfected mouse L5178 Y cells assessed as necrosis at 50 ug/mL after 40 mins; format: functional
[7] = Antiproliferative activity against human MDR1 gene transfected mouse L5178 Y cells after 72 hrs; format: functional; settings: L5178Y, read-out: ID50 (the source's name)
[8] = tested on: L5178Y; assay: Induction of apoptosis in human MDR1 gene transfected mouse L5178 Y cells assessed as total apoptosis at 7 ug/mL after 40 mins; format: functional
[9] = target: T1, ATP-dependent translocase ABCB1 (Homo sapiens, UniProt P08183); assay: Inhibition of P-gp mediated efflux-pump activity in human MDR1 gene transfected mouse L5178 Y cells at 4 ug/mL by rhodamine 123 accumulation test; format: cell-based
[10] = tested on: L5178Y; assay: Induction of apoptosis in human MDR1 gene transfected mouse L5178 Y cells assessed as early apoptosis at 7 ug/mL after 40 mins; format: functional
[11] = tested on: L5178Y; assay: Induction of apoptosis in human MDR1 gene transfected mouse L5178 Y cells assessed as necrosis at 75 ug/mL after 40 mins; format: functional
[12] = tested on: L5178Y; assay: Induction of apoptosis in human MDR1 gene transfected mouse L5178 Y cells assessed as total apoptosis at 75 ug/mL after 40 mins; format: functional
[13] = tested on: L5178Y; assay: Induction of apoptosis in human MDR1 gene transfected mouse L5178 Y cells assessed as early apoptosis at 75 ug/mL after 40 mins; format: functional
[14] = target: T1, ATP-dependent translocase ABCB1; assay: Inhibition of P-gp mediated efflux-pump activity in human MDR1 gene transfected mouse L5178 Y cells at 40 ug/mL by rhodamine 123 accumulation test; format: cell-based
[15] = tested on: L5178Y; assay: Induction of apoptosis in human MDR1 gene transfected mouse L5178 Y cells assessed as necrosis at 7 ug/mL after 40 mins; format: functional

T1 sequence (P08183 whole entry): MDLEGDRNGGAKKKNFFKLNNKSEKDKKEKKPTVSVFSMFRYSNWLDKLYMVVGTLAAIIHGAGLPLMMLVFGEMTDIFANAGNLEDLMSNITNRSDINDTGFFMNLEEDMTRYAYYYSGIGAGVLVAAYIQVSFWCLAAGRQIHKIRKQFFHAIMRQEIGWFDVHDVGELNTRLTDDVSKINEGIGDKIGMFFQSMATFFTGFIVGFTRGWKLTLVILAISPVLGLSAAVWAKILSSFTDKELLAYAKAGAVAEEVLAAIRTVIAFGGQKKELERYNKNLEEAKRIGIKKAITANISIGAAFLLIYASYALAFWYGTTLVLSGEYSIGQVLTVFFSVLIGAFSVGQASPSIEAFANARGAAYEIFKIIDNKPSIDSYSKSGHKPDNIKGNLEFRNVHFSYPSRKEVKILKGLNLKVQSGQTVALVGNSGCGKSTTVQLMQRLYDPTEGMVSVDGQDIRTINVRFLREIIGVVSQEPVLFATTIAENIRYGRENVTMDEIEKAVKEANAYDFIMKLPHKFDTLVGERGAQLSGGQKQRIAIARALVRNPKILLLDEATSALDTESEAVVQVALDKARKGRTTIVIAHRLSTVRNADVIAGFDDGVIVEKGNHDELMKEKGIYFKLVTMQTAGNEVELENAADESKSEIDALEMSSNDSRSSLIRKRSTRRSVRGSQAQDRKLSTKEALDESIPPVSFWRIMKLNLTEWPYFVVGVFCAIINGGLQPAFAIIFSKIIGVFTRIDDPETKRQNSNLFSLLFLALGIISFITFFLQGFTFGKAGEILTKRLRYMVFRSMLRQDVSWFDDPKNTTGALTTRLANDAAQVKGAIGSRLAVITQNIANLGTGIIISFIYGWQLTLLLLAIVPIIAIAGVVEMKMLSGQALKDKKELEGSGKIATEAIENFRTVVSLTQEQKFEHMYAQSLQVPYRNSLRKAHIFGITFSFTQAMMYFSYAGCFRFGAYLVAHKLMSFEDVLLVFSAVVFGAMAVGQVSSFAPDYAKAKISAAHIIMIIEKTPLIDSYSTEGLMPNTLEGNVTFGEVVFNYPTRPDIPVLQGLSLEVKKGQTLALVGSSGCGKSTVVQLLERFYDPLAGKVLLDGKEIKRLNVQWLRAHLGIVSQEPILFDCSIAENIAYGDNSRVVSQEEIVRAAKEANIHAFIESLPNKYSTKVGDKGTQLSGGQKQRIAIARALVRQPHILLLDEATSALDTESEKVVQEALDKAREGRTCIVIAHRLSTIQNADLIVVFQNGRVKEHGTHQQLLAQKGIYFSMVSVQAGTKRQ

SMILES: c1ccc2c(c1)Nc1c(ccc3ccccc13)S2
- Activity [1]: 0.02%
- Activity [2]: 65.01%
- Activity [3]: 1.72%
- Activity [4]: 98%
- Activity [5]: 16.3%
- Activity [6]: 1.81%

SMILES: COc1cccc2c1C(=O)c1c(O)c3c(c(O)c1C2=O)C[C@@](O)(C(=O)CO)C[C@@H]3O[C@H]1C[C@H](N)[C@H](O)[C@H](C)O1 [DOXORUBICIN]
- IC50 [7]: 0.35 µg/mL (≈ 0.644 µM)

SMILES: C/C1=C\[C@@H]2[C@H](CC[C@@]3(C)O[C@@H]3[C@H]3[C@@H](O)[C@@H](C)C[C@]3(OC(=O)/C=C/c3ccccc3)C1=O)C2(C)C [JOLKINOL B]
- Activity [8]: 27%
- Fluorescence intensity [9]: 449.2
- Activity [10]: 6.91%
- Activity [11]: 0.41%
- Activity [12]: 38.83%
- Activity [13]: 4.06%
- Fluorescence intensity [14]: 649.3
- Activity [15]: 1.16%

SMILES: CC(=O)OC[C@H]1C[C@H](OC(=O)/C=C/c2ccccc2)C(=O)/C(C)=C/[C@@H]2[C@H](CC[C@@]3(C)O[C@@H]3C[C@H]1O)C2(C)C [LATILAGASCENES A]
- Activity [8]: 22.7%
- Activity [10]: 7.79%
- Activity [11]: 2.16%
- Activity [12]: 55.24%
- Activity [13]: 33.88%
- Activity [15]: 0.85%

SMILES: C/C1=C\[C@@H]2[C@H](CC[C@@]3(C)O[C@@H]3C[C@@H](O)[C@@H](CO)C[C@H](OC(=O)/C=C/c3ccccc3)C1=O)C2(C)C [LATILAGASCENES B]
- Activity [8]: 18.96%
- Activity [10]: 5.87%
- Activity [11]: 1.82%
- Activity [12]: 96.31%
- Activity [13]: 1.38%
- IC50 [7]: 4.58 µg/mL (≈ 9.49 µM)
- Activity [15]: 0.79%

SMILES: CC(=O)OC[C@H]1C[C@H](OC(=O)/C=C/c2ccccc2)C(=O)/C(C)=C/[C@@H]2[C@H](CC[C@@]3(C)O[C@@H]3C[C@H]1OC(C)=O)C2(C)C [LATILAGASCENES C]
- Activity [8]: 21.9%
- Activity [10]: 7.8%
- Activity [11]: 3.93%
- Activity [12]: 41.31%
- Activity [13]: 1.04%
- Activity [15]: 0.69%

SMILES: C/C1=C\[C@@H]2[C@H](CC[C@@]3(C)O[C@@H]3C[C@@H](O)[C@@H](COC(=O)c3ccccc3)C[C@H](OC(=O)/C=C/c3ccccc3)C1=O)C2(C)C [LATILAGASCENES D]
- Activity [8]: 34.7%
- Fluorescence intensity [9]: 685.9
- Activity [10]: 12.7%
- Activity [11]: 6.83%
- Activity [12]: 67.97%
- Activity [13]: 2.96%
- Fluorescence intensity [14]: 714
- Activity [15]: 1.54%

SMILES: CC1(C)[C@@H]2/C=C(\CO)C(=O)[C@@H](OC(=O)/C=C/c3ccccc3)C[C@H](COC(=O)c3ccccc3)[C@H](O)C[C@H]3O[C@]3(C)CC[C@@H]21 [LATILAGASCENES E]
- Fluorescence intensity [9]: 882.2
- Fluorescence intensity [14]: 810.8

SMILES: C/C1=C\[C@@H]2[C@H](CC[C@@]3(C)O[C@@H]3C[C@@H](O)[C@@H](C)CC(OC(=O)c3ccccc3)C1=O)C2(C)C (stereo partly specified) [LATILAGASCENES F]
- Fluorescence intensity [9]: 212.6
- Fluorescence intensity [14]: 1029.4
